Measurements from patent publication US7713994B2 (Wyeth LLC, priority 2005, dated 2010).

Key:
[1] = tested on: LoVo; test: Cytotoxicity assay (SRB), LoVo; type: cell-based; details: Homo sapiens, LoVo, 72 h, LoVo cells, 3 days, SRB; read-out: In Vitro Cellular Activity IC50 LOVO
Protocol: (§1) BT474, HCT-116, LoVo and MCF-7 were maintained under 7% CO2 in RPMI 1640 medium supplemented with 10% fetal bovine serum and 50 µg/ml gentamicin.
(§2) Cells were plated in 96-well microtiter dishes (12000 cells/well for BT474, 4000 cells/well for HCT-116, 6000 cells/well for LoVo and 6000 cells/well for MCF-7) in RPMI 1640 medium containing 5% fetal bovine serum and 50 µg/ml gentamicin. The cells were allowed to incubate overnight at 37° C., 7% CO2. Compound dilutions were prepared using the same medium. HCT-116, LoVo and MCF-7 cells were cultured for three days and BT474 cells were cultured for 6 days, in the presence of each compound dilution. Untreated cells were included as controls. The percentage of surviving cells was determined using a protein binding dye (sulforhodamineB, SRB) assay. Cellular protein was precipitated in each well by the addition of 0.05 ml of 50% cold trichloroacetic acid (TCA). After 1 hour, the plates were washed extensively in dH2O and dried. The sulforhodamineB dye solution (0.08 mL of 0.4% SRB in 1% acetic acid) was added to each well, kept at room temperature for ten minutes, then washed in 1% acetic acid and dried. The dye was dissolved in 10 mM Tris-HCl (150 uL) and the absorbency read at 540 nm.

[2] = tested on: BT474; test: Cytotoxicity assay (SRB), BT474; type: cell-based; details: Homo sapiens, BT-474, 144 h, BT474 cells, 6 days, SRB; read-out: In Vitro Cellular Activity IC50 BT474
Protocol: as §1, §2

[3] = tested on: HCT-116; test: Cytotoxicity assay (SRB), HCT-116; type: cell-based; details: Homo sapiens, HCT-116, 72 h, HCT116 cells, 3 days, SRB; read-out: In Vitro Cellular Activity IC50 HCT116
Protocol: as §1, §2

[4] = target: T1, cyclin D1/cdk 4 enzyme (Homo sapiens, UniProt P11802); test: CDK4 ELISA kinase assay (phospho-Rb ser 795 detection); type: biochemical; details: In Vitro Enzyme Assay, cyclin D1/cdk 4, read-out: CDK4 IC50
T1 construct: made in house; host or cells: Sf9 insect cells, recombinant baculovirus
Summary of the method: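 Partially purified Sf9-expressed cyclin D1/CDK4, cyclin E/CDK2 or cyclin B/CDK1 phosphorylated plate-bound GST-Rb C-terminal fragment with 200 μM ATP at 30° C for 1 h.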

[5] = tested on: MCF-7; test: Cytotoxicity assay (SRB), MCF-7; type: cell-based; details: Homo sapiens, MCF7, 72 h, MCF-7 cells, 3 days, SRB; read-out: In Vitro Cellular Activity IC50 MCF-7
Protocol: as §1, §2

T1 sequence (P11802 whole entry, species assumed): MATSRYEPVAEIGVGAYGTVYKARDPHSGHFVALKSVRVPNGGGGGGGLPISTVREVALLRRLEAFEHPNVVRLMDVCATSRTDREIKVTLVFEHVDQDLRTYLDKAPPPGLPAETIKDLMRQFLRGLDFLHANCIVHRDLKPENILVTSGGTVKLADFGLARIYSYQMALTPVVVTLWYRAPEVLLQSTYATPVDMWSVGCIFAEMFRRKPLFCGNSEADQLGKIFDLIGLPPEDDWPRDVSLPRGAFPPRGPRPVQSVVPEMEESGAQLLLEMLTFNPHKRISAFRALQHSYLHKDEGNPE
T1 sequence (P24385 whole entry partner, species assumed): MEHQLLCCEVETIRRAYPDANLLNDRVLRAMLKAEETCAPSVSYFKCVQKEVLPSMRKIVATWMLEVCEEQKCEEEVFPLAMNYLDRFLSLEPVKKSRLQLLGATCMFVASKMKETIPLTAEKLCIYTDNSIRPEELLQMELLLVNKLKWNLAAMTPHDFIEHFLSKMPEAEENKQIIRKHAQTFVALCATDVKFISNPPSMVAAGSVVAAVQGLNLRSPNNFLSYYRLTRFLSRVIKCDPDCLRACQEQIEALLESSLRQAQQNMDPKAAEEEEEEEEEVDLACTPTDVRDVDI

| SMILES | IC50 [4] [µM] | IC50 [1] [µM] | IC50 [2] [µM] | IC50 [3] [µM] | IC50 [5] [µM] |
| --- | --- | --- | --- | --- | --- |
| N#CCc1ccc(NC=C2C(=O)NC(=O)c3ccc(-c4ccc5[nH]ccc5c4)cc32)cc1 [Example 629, (4-{[6-(1H-Indol-5-yl)-1,3-dioxo-2,3-dihydro-1H-isoquinolin-4-ylidenemethyl]-amino}-phenyl)-acetonitrile] | 5.5 | > 50 | > 50 | > 50 | 50 |
| NS(=O)(=O)c1ccc(CNC=C2C(=O)NC(=O)c3ccc(-c4cc5ccccc5o4)cc32)cc1 [Example 634, 4-{[(6-Benzofuran-2-yl-1,3-dioxo-2,3-dihydro-1H-isoquinolin-4-ylidenemethyl)-amino]-methyl}-benzenesulfonamide] | 9.9 | 8.5 | 47.8 | 19.1 | > 50 |
| O=C1NC(=O)c2ccc(C=Cc3ccc4ccccc4c3)cc2C1=CNCc1ccc(O)c(O)c1 [Example 661, 4-[(3,4-Dihydroxy-benzylamino)-methylene]-6-(2-naphthalen-2-yl-vinyl)-4H-isoquinoline-1,3-dione] | 5.5 | > 50 | 36.9 | > 50 | 37.5 |
| CN1CCN(c2ccc(NC=C3C(=O)NC(=O)c4ccc(-c5cc6ccccc6o5)cc43)cc2)CC1 [Example 669, 6-Benzofuran-2-yl-4-{[4-(4-methyl-piperazin-1-yl)-phenylamino]-methylene}-4H-isoquinoline-1,3-dione] | 9.6 | 20.6 | 2 | 2.9 | 2.9 |
| CN1CCN(c2ccc(NC=C3C(=O)NC(=O)c4ccc(-c5ccccc5Cl)cc43)cc2)CC1 [Example 691, 6-(2-Chloro-phenyl)-4-{[4-(4-methyl-piperazin-1-yl)-phenylamino]-methylene}-4H-isoquinoline-1,3-dione] | 8.3 | 2.2 | 3 | 1.3 | 2.8 |
| COc1ccc(-c2ccc3c(c2)C(=CNc2ccc(CC#N)cc2)C(=O)NC3=O)cc1 [Example 701, (4-{[6-(4-Methoxy-phenyl)-1,3-dioxo-2,3-dihydro-1H-isoquinolin-4-ylidenemethyl]-amino}-phenyl)-acetonitrile] | 6.6 | > 50 | 39.6 | > 50 | 34.4 |
| N#CCc1ccc(NC=C2C(=O)NC(=O)c3ccc(-c4ccc(F)cc4)cc32)cc1 [Example 704, (4-{[6-(4-Fluoro-phenyl)-1,3-dioxo-2,3-dihydro-1H-isoquinolin-4-ylidenemethyl]-amino}-phenyl)-acetonitrile] | 7 | > 50 | 26.4 | > 50 | 28.6 |
| N#CCc1ccc(NC=C2C(=O)NC(=O)c3ccc(-c4ccccc4F)cc32)cc1 [Example 706, (4-{[6-(2-Fluoro-phenyl)-1,3-dioxo-2,3-dihydro-1H-isoquinolin-4-ylidenemethyl]-amino}-phenyl)-acetonitrile] | 7.3 | > 50 | > 50 | > 50 | 40.4 |
| CC(=O)c1ccccc1-c1ccc2c(c1)C(=CNc1ccc(CC#N)cc1)C(=O)NC2=O [Example 711, (4-{[6-(2-Acetyl-phenyl)-1,3-dioxo-2,3-dihydro-1H-isoquinolin-4-ylidenemethyl]-amino}-phenyl)-acetonitrile] | 9.8 | > 50 | 46.7 | > 50 | > 50 |
| N#CCc1ccc(NC=C2C(=O)NC(=O)c3ccc(-c4ccccc4Cl)cc32)cc1 [Example 714, (4-{[6-(2-Chloro-phenyl)-1,3-dioxo-2,3-dihydro-1H-isoquinolin-4-ylidenemethyl]-amino}-phenyl)-acetonitrile] | 5.5 | > 50 | > 50 | > 50 | 31.2 |

Now those with a lower IC50 [4], led by results:

| IC50 [4] [µM] | SMILES | IC50 [1] [µM] | IC50 [2] [µM] | IC50 [3] [µM] | IC50 [5] [µM] |
| --- | --- | --- | --- | --- | --- |
| 4.9 | CN1CCN(c2ccc(NC=C3C(=O)NC(=O)c4ccc(C=CCn5ccnc5)cc43)cc2)CC1 [Example 679, 6-(3-Imidazol-1-yl-propenyl)-4-{[4-(4-methyl-piperazin-1-yl)-phenylamino]-methylene}-4H-isoquinoline-1,3-dione] | 6.9 | 15.5 | 6.4 | 9.2 |
| 4.8 | NS(=O)(=O)c1ccc(CNC=C2C(=O)NC(=O)c3ccc(C=CC4CCCCC4)cc32)cc1 [Example 656, 4-({[6-(2-Cyclohexyl-vinyl)-1,3-dioxo-2,3-dihydro-1H-isoquinolin-4-ylidenemethyl]-amino}-methyl)-benzenesulfonamide] | 11.7 | 13.4 | 12.6 | 12.2 |
| 4.7 | CN1CCN(c2ccc(NC=C3C(=O)NC(=O)c4ccc(-c5ccc(Cl)cc5)cc43)cc2)CC1 [Example 689, 6-(4-Chloro-phenyl)-4-{[4-(4-methyl-piperazin-1-yl)-phenylamino]-methylene}-4H-isoquinoline-1,3-dione] | 6.7 | 3.4 | 3 | 3.8 |
| 3.4 | NS(=O)(=O)c1ccc(CNC=C2C(=O)NC(=O)c3ccc(-c4csc5ccccc45)cc32)cc1 [Example 636, 4-{[(6-Benzo[b]thiophen-3-yl-1,3-dioxo-2,3-dihydro-1H-isoquinolin-4-ylidenemethyl)-amino]-methyl}-benzenesulfonamide] | 15.8 | 39.7 | 31.2 | 18.4 |
| 3.4 | COc1ccc(-c2ccc3c(c2)C(=CNc2ccc(N4CCN(C)CC4)cc2)C(=O)NC3=O)cc1 [Example 682, 6-(4-Methoxy-phenyl)-4-{[4-(4-methyl-piperazin-1-yl)-phenylamino]-methylene}-4H-isoquinoline-1,3-dione] | 5.2 | 2.5 | 1.5 | 4.4 |
| 3.1 | NS(=O)(=O)c1ccc(CNC=C2C(=O)NC(=O)c3ccc(-c4ccc5ccccc5c4)cc32)cc1 [Example 632, 4-{[(6-Naphthalen-2-yl-1,3-dioxo-2,3-dihydro-1H-isoquinolin-4-ylidenemethyl)-amino]-methyl}-benzenesulfonamide] | 44.6 | > 50 | > 50 | 17.3 |
| 3 | N#CCc1ccc(NC=C2C(=O)NC(=O)c3ccc(C=Cn4ccnc4)cc32)cc1 [Example 651, (4-{[6-(2-Imidazol-1-yl-vinyl)-1,3-dioxo-2,3-dihydro-1H-isoquinolin-4-ylidenemethyl]-amino}-phenyl)-acetonitrile] | > 50 | > 50 | > 50 | 37.1 |
| 2.9 | CN1CCN(c2ccc(NC=C3C(=O)NC(=O)c4ccc(-c5cccc(C=CC(=O)O)c5)cc43)cc2)CC1 [Example 699, 3-[3-(4-{[4-(4-Methyl-piperazin-1-yl)-phenylamino]-methylene}-1,3-dioxo-1,2,3,4-tetrahydro-isoquinolin-6-yl)-phenyl]-acrylic acid] | > 50 | > 50 | 22.9 | > 50 |
| 2.4 | NS(=O)(=O)c1ccc(CNC=C2C(=O)NC(=O)c3ccc(C=Cc4ccccn4)cc32)cc1 [Example 652, 4-({[1,3-Dioxo-6-(2-pyridin-2-yl-vinyl)-2,3-dihydro-1H-isoquinolin-4-ylidenemethyl]-amino}-methyl)-benzenesulfonamide] | > 50 | 28.5 | > 50 | 27 |
| 2.2 | O=C1NC(=O)c2ccc(-c3csc4ccccc34)cc2C1=CNCc1ccc(O)c(O)c1 [Example 645, 6-Benzo[b]thiophen-3-yl-4-[(3,4-dihydroxy-benzylamino)-methylene]-4H-isoquinoline-1,3-dione] | 7.2 | 15.5 | 9 | 8.8 |
| 2 | NS(=O)(=O)c1ccc(CNC=C2C(=O)NC(=O)c3ccc(C=Cc4ccccc4)cc32)cc1 [Example 654, 4-{[(1,3-Dioxo-6-styryl-2,3-dihydro-1H-isoquinolin-4-ylidenemethyl)-amino]-methyl}-benzenesulfonamide] | 13.1 | 3.1 | 2.4 | 10.7 |
